Assay results reported in ChEMBL document CHEMBL5226327, “Source and exploration of the peptides used to construct peptide-drug conjugates” (Eur J Med Chem, 2021).
Positions of bridges follow the written chain, without caps; N, C: chain ends. Non-standard residues stand in square brackets, D forms with d. Residues, ends and D or L forms follow the SMILES beside them. Pen = CC(C)(S)[C@H](N)C(=O)O

Key:
[1] = test system: HBL-100; experiment: Inhibition of cell adhesion in human HBL-100 cells; assay type: functional, cell-based
[2] = test system: A-375; experiment: Inhibition of cell adhesion in human A-375 cells; assay type: functional, cell-based
[3] = test system: HT-1080; experiment: Inhibition of cell adhesion in human HT-1080 cells; assay type: functional, cell-based
[4] = molecular target: Integrin alpha-5/beta-1 (Homo sapiens, UniProt P05556+P08648); experiment: Binding affinity to integrin alpha5beta1 (unknown origin) assessed as inhibition of integrin and fibronectin interaction; assay type: protein-complex assay
Integrin alpha-5/beta-1, sequence (P05556 21-798 limits assumed): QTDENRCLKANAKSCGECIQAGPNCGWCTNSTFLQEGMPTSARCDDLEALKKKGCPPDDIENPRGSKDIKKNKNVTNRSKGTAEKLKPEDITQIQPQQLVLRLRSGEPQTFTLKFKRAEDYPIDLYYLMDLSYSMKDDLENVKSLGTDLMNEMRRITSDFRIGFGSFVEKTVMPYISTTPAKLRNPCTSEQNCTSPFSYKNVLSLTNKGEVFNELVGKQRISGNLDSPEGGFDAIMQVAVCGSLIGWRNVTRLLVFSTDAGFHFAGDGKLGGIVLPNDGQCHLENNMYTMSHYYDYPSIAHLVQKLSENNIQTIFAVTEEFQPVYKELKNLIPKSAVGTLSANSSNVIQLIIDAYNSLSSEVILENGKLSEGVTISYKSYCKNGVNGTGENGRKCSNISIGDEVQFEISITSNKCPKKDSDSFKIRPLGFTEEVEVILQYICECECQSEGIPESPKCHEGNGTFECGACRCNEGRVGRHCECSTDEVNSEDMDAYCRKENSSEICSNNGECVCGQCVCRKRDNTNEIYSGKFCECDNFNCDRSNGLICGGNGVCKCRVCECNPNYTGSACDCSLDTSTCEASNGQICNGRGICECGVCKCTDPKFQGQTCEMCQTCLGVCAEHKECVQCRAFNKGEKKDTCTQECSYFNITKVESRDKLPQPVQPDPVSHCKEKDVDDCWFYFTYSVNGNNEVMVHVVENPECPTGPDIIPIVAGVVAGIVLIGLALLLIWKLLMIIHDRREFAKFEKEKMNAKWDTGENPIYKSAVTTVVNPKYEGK
Integrin alpha-5/beta-1, sequence (P08648 42-894 limits assumed): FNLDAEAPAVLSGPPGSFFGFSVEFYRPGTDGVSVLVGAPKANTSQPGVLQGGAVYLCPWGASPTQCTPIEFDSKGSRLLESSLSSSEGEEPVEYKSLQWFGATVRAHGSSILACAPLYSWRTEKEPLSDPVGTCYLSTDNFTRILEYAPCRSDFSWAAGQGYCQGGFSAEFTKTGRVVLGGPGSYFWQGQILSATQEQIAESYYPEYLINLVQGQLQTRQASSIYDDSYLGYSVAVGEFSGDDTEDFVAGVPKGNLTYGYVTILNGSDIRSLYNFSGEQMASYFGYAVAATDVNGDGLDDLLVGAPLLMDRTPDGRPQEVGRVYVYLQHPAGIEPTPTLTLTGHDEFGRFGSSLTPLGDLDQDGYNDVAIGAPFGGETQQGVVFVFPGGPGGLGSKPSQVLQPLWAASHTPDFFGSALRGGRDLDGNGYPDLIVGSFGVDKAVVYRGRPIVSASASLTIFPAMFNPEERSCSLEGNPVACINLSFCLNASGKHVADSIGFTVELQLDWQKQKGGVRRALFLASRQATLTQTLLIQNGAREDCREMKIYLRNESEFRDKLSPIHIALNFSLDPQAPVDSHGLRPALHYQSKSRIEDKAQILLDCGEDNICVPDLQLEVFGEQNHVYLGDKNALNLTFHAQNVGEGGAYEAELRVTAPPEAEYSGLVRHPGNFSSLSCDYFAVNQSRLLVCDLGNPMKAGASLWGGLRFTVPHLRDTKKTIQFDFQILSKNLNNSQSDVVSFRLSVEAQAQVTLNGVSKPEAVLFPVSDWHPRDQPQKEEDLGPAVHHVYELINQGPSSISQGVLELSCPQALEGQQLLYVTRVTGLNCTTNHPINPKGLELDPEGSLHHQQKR
Integrin alpha-5/beta-1, sequence (P08648 895-1049 limits assumed): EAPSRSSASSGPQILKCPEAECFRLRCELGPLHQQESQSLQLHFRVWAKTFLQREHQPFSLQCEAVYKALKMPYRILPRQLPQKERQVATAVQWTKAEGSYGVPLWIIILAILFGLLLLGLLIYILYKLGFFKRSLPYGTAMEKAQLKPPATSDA

Row | IC50 [1] | IC50 [2] | IC50 [3] | IC50 [4] | Compound
1 | 100 nM | 100 nM | 100 nM |  | CC(=O)N[C@H]1CSSC(C)(C)[C@@H](C(N)=O)NC(=O)[C@H](Cc2ccccc2)NC(=O)[C@H](CC(=O)O)NC(=O)CNC(=O)[C@H](CCCNC(=N)N)NC1=O (Ac-CRGDF[Pen]-NH2; disulfide 1-6)
2 |  |  |  | 1560 nM | CC[C@H](C)[C@H](NC(=O)[C@@H](N)C(C)C)C(=O)N[C@@H](CC(C)C)C(=O)N[C@H](C(=O)N[C@@H](CC(C)C)C(=O)N[C@@H](Cc1ccccc1)C(=O)O)C(C)C (H-VILVLF-OH)
